Test results: US7754228B2, “Cytotoxic T-cell epitopes from Chlamydia” (Novartis Vaccines and Diagnostics, Srl, priority 2002, dated 2010)
Entries after “also recorded” stand apart in the source; their conditions may differ. Like-named read-outs stand apart in the source and are kept apart here.

System: HLA A2
Assay type: binding, human
Conditions: for binding to HLA A2 (in words): in vitro binding assay
[1] = 100 μM peptide, RMA-S/A2 cells, peptide and only anti-mouse secondary antibody, FACS mean
[2] = 100 μM peptide, RMA-S/A2 cells, peptide, anti-A2 Mab BB7.2 and secondary antibody, FACS mean
[3] = 1 μM peptide, RMA-S/A2 cells, peptide and only anti-mouse secondary antibody, FACS mean
[4] = 1 μM peptide, RMA-S/A2 cells, peptide, anti-A2 Mab BB7.2 and secondary antibody, FACS mean
[5] = 10 μM peptide, RMA-S/A2 cells, peptide and only anti-mouse secondary antibody, FACS mean
[6] = 10 μM peptide, RMA-S/A2 cells, peptide, anti-A2 Mab BB7.2 and secondary antibody, FACS mean

Sequence	High - B	Δ Mean	Mean 1 [1]	Mean 2 [2]	binding to HLA A2 (in words) (RMA-S/A2 cells)	Mean 1 [3]	Mean 2 [4]	Mean 1 [5]	Mean 2 [6]	ΔMean at high concentrations of peptide (in words) (high peptide concentrations, non-homogeneous fluorescent signal, most likely non-specific effects)	rank in the binding assay among five epitopes predicted in protein 4376601 (CH44 to CH48)	Mean 1	Mean 2
ALMLLNNYV (listed as Chlamydia pneumoniae) [CH20]	138	384	194	578	bind to HLA A2	–	–	–	–	–	–	–	–
ALWGHNVLL (listed as Chlamydia pneumoniae) [CH55]	98	258	153	411	bind to HLA A2; also recorded: positive in the binding assay	–	–	–	–	–	–	–	–
ALWKENQAL (listed as Chlamydia pneumoniae) [CH54]	91	251	140	–	bind to HLA A2; also recorded: positive in the binding assay	–	–	–	–	–	–	–	–
FLFQLGMQI [CH62]	19	179	126	305	–	–	–	–	–	–	–	–	–
FLQRGESFV [CH30]	89	243	155	398	bind to HLA A2	–	–	–	–	–	–	–	–
FLTLAWWFI [CH8]	82	328	–	–	bind to HLA A2	204	532	–	–	–	–	–	–
FVSKFWFSL [CH57]	−17	–	–	–	–	127	270	–	–	–	–	–	–
IALLVIFFV [CH18]	0	230	–	–	do not seem to bind	–	–	198	428	–	–	–	–
ILLNEVPYV [CH2]	133	372	–	–	bind to HLA A2	–	–	264	636	–	–	–	–
ILQEAEQMV [CH17]	140	386	185	571	bind to HLA A2	–	–	–	–	–	–	–	–
ILSFLPWLV [CH35]	86	240	–	–	bind to HLA A2	–	–	171	411	–	–	–	–
KLLAFPAFA [CH40]	96	341	214	555	bind to HLA A2	–	–	–	–	–	–	–	–
KLLKDHFDL (listed as Chlamydia pneumoniae) [CH34]	81	235	155	390	bind to HLA A2	–	–	–	–	–	–	–	–
KLSEQLEAL [CH41]	101	261	162	423	bind to HLA A2; also recorded: positive in the binding assay	–	–	–	–	–	–	–	–
KLWEWLGYL [CH32]	63	217	–	–	bind to HLA A2	–	–	161	378	–	–	–	–
KMSHFQQAL [CH49]	23	183	134	317	–	–	–	–	–	–	–	–	–
KVLLGQEWV [CH42]	40	200	136	336	bind to HLA A2	–	–	–	–	–	–	–	–
LIQETLLFV [CH24]	75	229	165	394	bind to HLA A2	–	–	–	–	–	–	–	–
LLLIFNNYL [CH36]	−16	138	–	–	do not seem to bind	163	301	–	–	–	–	–	–
LLLTLGYAV (listed as Chlamydia pneumoniae) [CH19]	0	240	196	436	do not seem to bind	–	–	–	–	–	–	–	–
LLMLAISLV [CH33]	0	154	–	–	do not seem to bind	164	318	–	–	–	–	–	–
NLAEQVTAL [CH43]	–	286	153	439	bind to HLA A2; also recorded: positive in the binding assay	–	–	–	–	–	–	–	–
NLAGGILSV (listed as Chlamydia pneumoniae) [CH56]	80	240	143	383	bind to HLA A2; also recorded: positive in the binding assay	–	–	–	–	–	–	–	–
NLLKRWQFV [CH38]	73	227	170	397	bind to HLA A2	–	–	–	–	–	–	–	–
NLSISVFLL [CH46]	12	172	131	303	–	–	–	–	–	–	–	–	–

Sequence	High - B	Δ Mean	Mean 1 [1]	Mean 2 [2]	binding to HLA A2 (in words) (RMA-S/A2 cells)	Mean 1 [3]	Mean 2 [4]	Mean 1 [5]	Mean 2 [6]	ΔMean at high concentrations of peptide (in words) (high peptide concentrations, non-homogeneous fluorescent signal, most likely non-specific effects)	rank in the binding assay among five epitopes predicted in protein 4376601 (CH44 to CH48)	Mean 1	Mean 2
NLSRQAFFA (listed as Chlamydia pneumoniae) [CH51]	19	179	132	311	–	–	–	–	–	–	–	–	–
NLWSHYTDL (listed as Chlamydia pneumoniae) [CH53]	48	209	141	350	bind to HLA A2	–	–	–	–	–	–	–	–
QLLDEGKEL [CH1]	37	283	206	489	bind to HLA A2	–	–	–	–	–	–	–	–
QLLESLAPL [CH4]	58	304	212	516	bind to HLA A2	–	–	–	–	–	–	–	–
RLLEIIWGV [CH28]	78	232	–	–	bind to HLA A2	–	–	158	390	–	–	–	–
SILELLQFV [CH5]	71	298	–	–	bind to HLA A2	–	–	179	477	–	–	–	–
SLCAQSSYV (listed as Chlamydia pneumoniae) [CH50]	91	251	130	381	bind to HLA A2; also recorded: positive in the binding assay	–	–	–	–	–	–	–	–
SLLEEHPVV (listed as Chlamydia pneumoniae) [CH52]	89	249	147	396	bind to HLA A2; also recorded: positive in the binding assay	–	–	–	–	–	–	–	–
TLWGSFVDV (listed as Chlamydia pneumoniae) [CH21]	121	275	165	440	bind to HLA A2	–	–	–	–	–	–	–	–
VIQAFGDFV [CH47]	17	177	–	–	–	–	–	125	302	–	–	–	–
VLFLLIRSV [CH61]	−37	123	–	–	–	135	258	–	–	–	–	–	–
VLNLFFSAL (listed as Chlamydia pneumoniae) [CH3]	0	224	–	–	–	195	419	–	–	Very low ΔMean values	–	–	–
VMLFIGLGV [CH60]	−27	133	–	–	–	–	–	148	281	–	–	–	–
VMLIFEKKV [CH14]	12	258	197	455	do not seem to bind	–	–	–	–	–	–	–	–
VQLAYVFDV (listed as Chlamydia pneumoniae) [CH16]	0	232	201	433	do not seem to bind	–	–	–	–	–	–	–	–
WLFDLRFSV (listed as Chlamydia pneumoniae) [CH22]	73	227	–	–	bind to HLA A2	–	–	163	390	–	–	–	–
WLLRDDWLL [CH31]	89	243	165	408	bind to HLA A2	–	–	–	–	–	–	–	–
WLVFFNPFV [CH12]	0	211	–	–	do not seem to bind	204	415	–	–	–	–	–	–
WMMGVVLMI [CH45]	51	211	–	–	bind to HLA A2	–	–	147	358	–	–	–	–
YLALDPDSV [CH48]	–	303	148	451	bind to HLA A2; also recorded: positive in the binding assay	–	–	–	–	–	strongest epitope using the binding assay	–	–
YLIVFVLTI [CH59]	−37	123	–	–	–	–	–	–	–	–	–	150	273
YLLDFRWPL [CH37]	84	238	–	–	bind to HLA A2	–	–	164	402	–	–	–	–
YLMQKLQNV [CH29]	111	265	153	418	bind to HLA A2	–	–	–	–	–	–	–	–
YLTSYSPYV (listed as Chlamydia pneumoniae) [CH15]	76	322	235	557	bind to HLA A2	–	–	–	–	–	–	–	–
YVVGFIIFL [CH44]	31	191	–	–	–	–	–	150	341	–	–	–	–
